# Experimental data from patent publication US10736974B2, “Scaffolds and multifunctional intermediates for imaging PSMA and cancer therapy” (THE JOHNS HOPKINS UNIVERSITY, priority 2014, dated 2020).
# Entries after “also recorded” stand apart in the source; their conditions may differ.
# Key:
# [1] = tested on: PSMA+ PC-3 PIP and PSMA- PC-3 flu tumors; assay: PET-CT imaging of NOD/SCID mice bearing PSMA+ PC-3 PIP and PSMA- PC-3 flu tumors; assay type: in vivo
# Procedure: FIG. 8A, FIG. 8B, FIG. 8C, and FIG. 8D show positron emission tomography-computed tomography (PET-CT) images in male NOD-SCID mice injected with the radiolabeled [^18F]XY-20 compound at (FIG. 8A) 5-15 minutes, (FIG. 8B) 15-25 minutes, (FIG. 8C) 25-35 minutes and (FIG. 8D) 50-60 minutes after injection; the mice on the right in each panel were pretreated with ZJ43 and the mice on the left in each panel were not pretreated with ZJ43. The green arrows point to the PSMA-negative PC3-flu tumor and the red arrows point to the PSMA-expressing (PC3-PIP) tumor (target); 200 microCi of radiotracer was injected;
# Dynamic and whole-body PET and CT images were acquired on an eXplore VISTA small-animal PET (GE Healthcare) and an X-SPECT small SPECT/CT system (Gamma Medica Ideas), respectively. For imaging studies, anesthesia was induced with 3% and maintained under 1.5% isoflurane (v/v) in oxygen. PET or PET-CT imaging studies were performed on NOD/SCID mice bearing PSMA+PC-3 PIP and PSMA-PC-3 flu tumors. Following intravenous injection of [^18F]12 ([^18F]XY-20) PET images were acquired at 10 min, 30 min, 1 h, 2 h and 4 h p.i. as a pseudodynamic scan, i.e., a sequence of successive whole-body images were acquired in two bed positions. The dwell time at each bed position was 10 min for a total scan time of 20 minutes. An energy window of 250-700 keV was used. […]
# [2] = tested on: PSMA+ PC-3 PIP and PSMA- PC-3 flu tumors; assay: Ex vivo biodistribution in mice bearing PSMA+ PC-3 PIP and PSMA- PC-3 flu xenografts; details: for Biodistribution, PC-3 Pip tumor: PSMA+ PC-3 PIP tumor; for Biodistribution, PC-3 flu tumor: PSMA- PC-3 flu tumor; for Biodistribution, Lrg int.: large intestine; for Biodistribution, Sm. int.: small intestine
# [3] = tested on: PC-3 PIP (PSMA+) cells; assay: In vitro stability studies (TLC of radiometabolites) in PC-3 PIP and PC-3 flu cells; details: 30 minutes incubation, PC-3 PIP vs PC-3 flu cells
smiles,measurement,setting,value
O=C(O)CC[C@H](NC(=O)O[C@@H](CCCCNC(=O)c1ccc([18F])cc1)C(=O)O)C(=O)O [[^18F]12],tumor uptake on co-injection with an excess of competing inhibitor ZJ-43,[1],complete blockade of tumor uptake
same,tumor and kidney uptake and clearance (pharmacokinetics in words),[2]; PC-3 PIP tumor mice,modest PSMA+PC-3 PIP tumor uptake but rapidly cleared from both PC-3 PIP tumor and normal tissues including kidneys
same,"Biodistribution, PC-3 Pip tumor","[2]; 30 min, N = 7",6.33±1.55 percent injected dose/gram
same,"Biodistribution, PC-3 Pip tumor","[2]; 60 min, N = 4",3.52 ± 1.48 percent injected dose/gram
same,"Biodistribution, PC-3 Pip tumor","[2]; 90 min, N = 4",0.94 ± 0.24 percent injected dose/gram
same,"Biodistribution, PC-3 Pip tumor","[2]; 180 min, N = 4",0.22 ± 0.07 percent injected dose/gram
same,"Biodistribution, PC-3 flu tumor","[2]; 30 min, N = 7",1.89 ± 0.78 percent injected dose/gram
same,"Biodistribution, PC-3 flu tumor","[2]; 60 min, N = 4",0.72 ± 0.12 percent injected dose/gram
same,"Biodistribution, PC-3 flu tumor","[2]; 90 min, N = 4",0.37 ± 0.08 percent injected dose/gram
same,"Biodistribution, PC-3 flu tumor","[2]; 180 min, N = 4",0.12 0.03 percent injected dose/gram
same,clearance of radioactivity from organs,[2]; after 30 min,radioactivity rapidly cleared from all organs including PC-3 PIP tumor
same,"Biodistribution, bladder","[2]; 30 min, N = 7",22.4 ± 22.5 percent injected dose/gram
same,"Biodistribution, bladder","[2]; 60 min, N = 4",5.50 ± 3.45 percent injected dose/gram
same,"Biodistribution, bladder","[2]; 90 min, N = 4",2.11 ± 1.21 percent injected dose/gram
same,"Biodistribution, bladder","[2]; 180 min, N = 4",2.74 ± 0.48 percent injected dose/gram
same,"Biodistribution, blood","[2]; 30 min, N = 7",2.51 ± 1.75 percent injected dose/gram
same,"Biodistribution, blood","[2]; 60 min, N = 4",1.07 ± 0.26 percent injected dose/gram
same,"Biodistribution, blood","[2]; 90 min, N = 4",0.20 ± 0.14 percent injected dose/gram
same,"Biodistribution, blood","[2]; 180 min, N = 4",0.08 ± 0.06 percent injected dose/gram
same,"Biodistribution, bone","[2]; 30 min, N = 7",2.05 ± 2.39 percent injected dose/gram
same,"Biodistribution, bone","[2]; 60 min, N = 4",0.72 ± 0.31 percent injected dose/gram
same,"Biodistribution, bone","[2]; 90 min, N = 4",0.79 ± 0.16 percent injected dose/gram
same,"Biodistribution, bone","[2]; 180 min, N = 4",0.63 ± 0.14 percent injected dose/gram
same,"Biodistribution, fat","[2]; 30 min, N = 7",1.23 ± 1.88 percent injected dose/gram
same,"Biodistribution, fat","[2]; 60 min, N = 4",0.15 ± 0.05 percent injected dose/gram
same,"Biodistribution, fat","[2]; 90 min, N = 4",0.11 ± 0.06 percent injected dose/gram
same,"Biodistribution, fat","[2]; 180 min, N = 4",0.04 ± 0.02 percent injected dose/gram
same,"Biodistribution, heart","[2]; 30 min, N = 7",1.12 ± 0.74 percent injected dose/gram
same,"Biodistribution, heart","[2]; 60 min, N = 4",0.25 ± 0.08 percent injected dose/gram
same,"Biodistribution, heart","[2]; 90 min, N = 4",0.11 ± 0.02 percent injected dose/gram
same,"Biodistribution, heart","[2]; 180 min, N = 4",0.07 ± 0.04 percent injected dose/gram
same,"Biodistribution, kidney","[2]; 30 min, N = 7",14.2 ± 8.47 percent injected dose/gram
same,"Biodistribution, kidney","[2]; 60 min, N = 4",6.97 ± 7.02 percent injected dose/gram
same,"Biodistribution, kidney","[2]; 90 min, N = 4",1.51 ± 0.22 percent injected dose/gram
same,"Biodistribution, kidney","[2]; 180 min, N = 4",0.50 ± 0.18 percent injected dose/gram
same,"Biodistribution, Lrg int.","[2]; 30 min, N = 7",3.82 ± 5.87 percent injected dose/gram
same,"Biodistribution, Lrg int.","[2]; 60 min, N = 4",0.62 ± 0.27 percent injected dose/gram
same,"Biodistribution, Lrg int.","[2]; 90 min, N = 4",0.18 ± 0.03 percent injected dose/gram
same,"Biodistribution, Lrg int.","[2]; 180 min, N = 4",0.16 ± 0.05 percent injected dose/gram
same,"Biodistribution, liver","[2]; 30 min, N = 7",11.0 ± 1.77 percent injected dose/gram
same,"Biodistribution, liver","[2]; 60 min, N = 4",12.5 ± 3.01 percent injected dose/gram
same,"Biodistribution, liver","[2]; 90 min, N = 4",11.0 ± 0.87 percent injected dose/gram
same,"Biodistribution, liver","[2]; 180 min, N = 4",4.62 ± 3.80 percent injected dose/gram
same,"Biodistribution, lung","[2]; 30 min, N = 7",2.07 ± 1.51 percent injected dose/gram
same,"Biodistribution, lung","[2]; 60 min, N = 4",0.85 ± 0.55 percent injected dose/gram
same,"Biodistribution, lung","[2]; 90 min, N = 4",0.33 ± 0.05 percent injected dose/gram
same,"Biodistribution, lung","[2]; 180 min, N = 4",0.14 ± 0.04 percent injected dose/gram
same,"Biodistribution, muscle","[2]; 30 min, N = 7",0.86 ± 0.81 percent injected dose/gram
same,"Biodistribution, muscle","[2]; 60 min, N = 4",0.27 ± 0.12 percent injected dose/gram
same,"Biodistribution, muscle","[2]; 90 min, N = 4",0.06 ± 0.01 percent injected dose/gram
same,"Biodistribution, muscle","[2]; 180 min, N = 4",0.03 ± 0.01 percent injected dose/gram
same,"Biodistribution, Sm. int.","[2]; 30 min, N = 7",1.89 ± 1.58 percent injected dose/gram
same,"Biodistribution, Sm. int.","[2]; 60 min, N = 4",0.54 ± 0.19 percent injected dose/gram
same,"Biodistribution, Sm. int.","[2]; 90 min, N = 4",0.27 ± 0.11 percent injected dose/gram
same,"Biodistribution, Sm. int.","[2]; 180 min, N = 4",0.08 ± 0.04 percent injected dose/gram
same,"Biodistribution, spleen","[2]; 30 min, N = 7",3.76 ± 6.48 percent injected dose/gram
same,"Biodistribution, spleen","[2]; 60 min, N = 4",0.45 ± 0.31 percent injected dose/gram
same,"Biodistribution, spleen","[2]; 90 min, N = 4",0.27 ± 0.04 percent injected dose/gram
same,"Biodistribution, spleen","[2]; 180 min, N = 4",0.13 ± 0.08 percent injected dose/gram
"O=C(O)CC[C@H](NC(=O)O[C@@H](CCCCNC(=O)c1ccc([125I])cc1)C(=O)O)C(=O)O [[^125I]31, (S)-2-(((((S)-1-carboxy-5-(4-[^125I]iodobenzamido)pentyl)oxy)carbonyl)amino) pentanedioic acid]",radiometabolites / metabolism in cells,[3],Polar radiometabolite(s) in extracellular and intracellular fluid were only seen; also recorded: observed only in PSMA+PC-3 PIP cells
